Data taken from article PMC4822253, “Inhibition of BMP and of TGFβ receptors downregulates expression of XIAP and TAK1 leading to lung cancer cell death” (Molecular Cancer, 2016).

Experiments:
[1] = tested on: H1299 Id1-luc tumor xenografts; test: Tumor xenograft Id1 promoter-luciferase luminescence; type: in vivo, nude mice; conditions: 3 mg/kg IP; 4 h, 24 h, and 48 h following treatment; greatest effect at 24 h
Protocol: H1299 cells were stably transfected with the Id1 promoter-luciferase reporter. Five million cells were injected subcutaneously into the flank of NCI female nude mice. After approximately 12 days the mice were anesthetized and the luciferase activity measured. Baseline luciferase activity was obtained just prior to the injection of inhibitors. Mice were injected IP with 150 mg/kg luciferin-D and after a 15-min uptake period tumors were imaged with IVIS Spectrum and analyzed using Living Image software. […] The tumors were harvested on ice, homogenized, and placed in lysis buffer.

[2] = tested on: H1299 Id1-luc cells; test: Id1-promoter luciferase reporter assay; type: cell-based; conditions: 1.0 μM and 2.5 μM, 48 h
Protocol: H1299 cells were stably transfected with the Id1-promoter luciferase reporter. Treated cells were lysed with 1X luciferase lysis buffer (Promega). Samples were added to luciferase assay substrate (Promega) and luminsescence measured by the TD-20/20 Luminometer (Turner Designs/Turner BioSystems, Sunnyvale, CA). Control samples included luciferase assay substrate alone and luciferase assay substrate plus 1X reporter lysis buffer.

[3] = tested on: H1299 cells; test: Western blot analysis of cells in culture; type: cell-based; conditions: H1299 cells
Protocol: Total cellular protein was prepared using RIPA buffer containing a protease inhibitor cocktail and protein concentration was measured using the BCA assay as described. In brief, protein was analyzed by SDS-PAGE, transferred to nitrocellulose (Schleicher and Schuell, Keene, NH). After blocking, the blots were incubated overnight at 4 °C with the appropriate primary antibody in Tris-buffered saline with 1 % Tween (TBST) and 5 % BSA. Secondary antibodies were applied for 1 h at room temperature. Specific proteins were detected using the enhanced chemiluminescence system (Amersham, Arlington Heights, IL). The primary antibodies that were used were rabbit monoclonal anti-pSmad 1/5, rabbit monoclonal anti-pSmad2, rabbit monoclonal anti-Smad2, rabbit monoclonal anti-pTAK1, rabbit monoclonal XIAP, rabbit anti-monoclonal p-p65, rabbit monoclonal anti-activated caspase-3, rabbit polyclonal anti-BMPRII, and rabbit monoclonal anti-EGR-1 (Cell signaling Technology, Danvers MA), Rabbit monoclonal anti-TAK1 (Invitrogen, Grand Island NY), rabbit anti-actin, an affinity isolated antigen specific antibody (Sigma, Saint Louis, MO), rabbit monoclonal anti-Id1 and rabbit monoclonal anti-Id3 (Calbioreagents, San Mateo, CA), rabbit polyclonal anti-GAPDH (Sigma, St. Louis, MO) and rabbit polyclonal pMEK-1/2 (Cell Signaling, Danvers MA).

[4] = target: T1, TGFbetaR2 (Homo sapiens, UniProt P37173); test: In vitro kinase IC50; type: biochemical; conditions: kinase activity; ATP 10 Micromolar; 10-point, duplicate
T1 construct: purchased Reaction Biology Corporation (Malvern, PA)
Source text: (§1) The ATP concentration was 10 Micromolar.

[5] = target: T2, BMPRII (Homo sapiens, UniProt Q13873); test: In vitro kinase IC50; type: biochemical; conditions: kinase activity; ATP 10 Micromolar; 10-point, duplicate
T2 construct: purchased Reaction Biology Corporation (Malvern, PA)
T2 sequence (Q13873 27-1038): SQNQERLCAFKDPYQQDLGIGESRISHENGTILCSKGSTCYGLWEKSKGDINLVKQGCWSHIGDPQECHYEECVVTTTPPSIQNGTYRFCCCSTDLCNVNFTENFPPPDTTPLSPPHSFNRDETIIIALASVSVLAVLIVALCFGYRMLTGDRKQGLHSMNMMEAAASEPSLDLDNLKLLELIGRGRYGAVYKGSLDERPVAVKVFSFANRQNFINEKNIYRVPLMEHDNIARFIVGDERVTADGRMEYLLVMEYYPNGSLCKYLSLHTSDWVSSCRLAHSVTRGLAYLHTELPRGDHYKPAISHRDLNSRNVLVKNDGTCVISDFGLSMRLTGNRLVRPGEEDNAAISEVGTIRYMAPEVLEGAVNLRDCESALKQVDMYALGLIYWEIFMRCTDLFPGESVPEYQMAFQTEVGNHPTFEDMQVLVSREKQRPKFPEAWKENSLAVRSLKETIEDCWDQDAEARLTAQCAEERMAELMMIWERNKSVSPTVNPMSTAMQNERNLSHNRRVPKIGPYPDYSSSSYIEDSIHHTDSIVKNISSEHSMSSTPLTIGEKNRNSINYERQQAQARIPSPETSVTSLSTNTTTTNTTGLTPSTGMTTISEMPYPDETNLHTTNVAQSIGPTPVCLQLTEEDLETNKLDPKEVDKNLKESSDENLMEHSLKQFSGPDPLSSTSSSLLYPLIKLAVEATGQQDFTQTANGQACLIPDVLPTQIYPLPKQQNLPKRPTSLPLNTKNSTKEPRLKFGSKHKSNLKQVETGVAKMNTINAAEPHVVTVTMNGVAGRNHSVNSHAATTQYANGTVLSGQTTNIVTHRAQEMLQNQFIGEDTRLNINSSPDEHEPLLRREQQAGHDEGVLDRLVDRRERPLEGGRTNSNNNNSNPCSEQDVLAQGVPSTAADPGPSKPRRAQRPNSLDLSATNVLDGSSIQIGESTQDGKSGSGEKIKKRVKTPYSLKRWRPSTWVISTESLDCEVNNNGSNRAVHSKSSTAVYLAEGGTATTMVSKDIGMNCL
Source text: as §1

[6] = Plasma protein binding by equilibrium dialysis; type: in vitro ADME; conditions: human plasma
[7] = Plasma protein binding by equilibrium dialysis; type: in vitro ADME; conditions: mouse plasma
[8] = tested on: H1299 tumor xenografts; test: Western blot analysis of tumor xenografts; type: in vivo, nude mice
Protocol: Total cellular protein was prepared using RIPA buffer containing a protease inhibitor cocktail and protein concentration was measured using the BCA assay as described. In brief, protein was analyzed by SDS-PAGE, transferred to nitrocellulose (Schleicher and Schuell, Keene, NH). After blocking, the blots were incubated overnight at 4 °C with the appropriate primary antibody in Tris-buffered saline with 1 % Tween (TBST) and 5 % BSA. Secondary antibodies were applied for 1 h at room temperature. Specific proteins were detected using the enhanced chemiluminescence system (Amersham, Arlington Heights, IL). […]
H1299 cells were stably transfected with the Id1 promoter-luciferase reporter. […] After approximately 12 days the mice were anesthetized and the luciferase activity measured. […] Mice were injected IP with 150 mg/kg luciferin-D and after a 15-min uptake period tumors were imaged with IVIS Spectrum and analyzed using Living Image software. […]

T1 sequence (P37173 23-567): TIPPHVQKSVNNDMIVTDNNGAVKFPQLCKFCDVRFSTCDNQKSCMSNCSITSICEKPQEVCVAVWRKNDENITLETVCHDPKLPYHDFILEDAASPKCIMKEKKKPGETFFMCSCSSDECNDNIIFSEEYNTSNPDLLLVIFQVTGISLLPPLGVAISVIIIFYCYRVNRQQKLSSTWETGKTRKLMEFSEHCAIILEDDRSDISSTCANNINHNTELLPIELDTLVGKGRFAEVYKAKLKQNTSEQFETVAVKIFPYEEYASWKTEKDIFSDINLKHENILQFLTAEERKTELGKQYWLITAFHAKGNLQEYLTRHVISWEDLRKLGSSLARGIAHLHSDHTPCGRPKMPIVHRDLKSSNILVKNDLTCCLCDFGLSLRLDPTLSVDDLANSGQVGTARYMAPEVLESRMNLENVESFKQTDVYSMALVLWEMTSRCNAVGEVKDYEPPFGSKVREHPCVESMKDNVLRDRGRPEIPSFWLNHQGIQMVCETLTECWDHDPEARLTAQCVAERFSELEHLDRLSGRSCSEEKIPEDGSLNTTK

Compound: c1ccc2c(-c3cnn4cc(-c5ccc(OCCN6CCOCC6)cc5)cnc34)ccnc2c1 [DMH2]
- tumor luminescence (Id1 promoter) compared to baseline [1]: increased
- suppression of Id1 promoter activity in comparison to DMH1 [2]: significantly greater suppression
- expression of phosphorylated MEK-1/2 ([3]; 24 and 48 h): increase
- low dose that can cause an increase in the expression of Id1 ([3]; 24 and 48 h, suppression at higher concentrations): 0.5 µM
- expression of activated caspase-3 ([3]; 48 h): induced
- expression of Smad2 ([3]; 3 days): very significant decrease
- expression of TAK1 and phosphorylation of NF-kappa B subunit p65 ([3]; 3 days): decrease
- expression of XIAP ([3]; after 3 days (cell line not stated for DMH1 and LDN)): significant decrease
- phosphorylation of TAK1 and Smad2 ([3]; increasing doses, 48 h): increase in phosphorylation of TAK1and Smad2 at lower doses, which tapered off at higher doses
- IC50 [4]: 0.193 µM
- IC50 [5]: 7.95 µM
- percent binding plasma proteins [6]: 98.6 % +/−0.7
- percent binding plasma proteins [7]: 98.2 % +/−1.5
- increase in the expression of Id1 protein compared to controls ([8]; 9 days, twice-daily injection, normalized to GAPDH): 103%
- phosphorylated TAK1 and Smad2 in tumor xenografts ([8]; treated for 24 h and 9 days): increase
